Measurements published in patent US20260372306A1, “MICROBIOCIDAL HETEROBICYCLIC DIHYDROOXADIAZINE DERIVATIVES” (SYNGENTA CROP PROTECTION AG, priority 2022, published 2026).

Tests used:
[1] = tested on: Botryotinia fuckeliana; test: Botryotinia fuckeliana syn. Botrytis cinerea (Gray Mould of Grapevine), growth inhibition in nutrient broth; format: cell-based; details: Vogels broth, 24 °C, photometric, 3-4 days after application, read-out: control of Botryotinia fuckeliana (inhibition of growth)
Description: (§1) Mycelia fragments or conidia suspensions of a fungus prepared either freshly from liquid cultures of the fungus or from cryogenic storage, are directly mixed into nutrient broth. DMSO solutions of the test compound (max. 10 mg/mL) are diluted with 0.025% Tween20 by a factor of 50 and 10 μL of this solution is pipetted into a microtiter plate (96-well format). The nutrient broth containing the fungal spores/mycelia fragments is then added to give an end concentration of the tested compound. The test plates are incubated in the dark at 24 °C and 96% relative humidity. The inhibition of fungal growth is determined photometrically after 2 to 7 days, depending on the pathosystem, and percent antifungal activity relative to the untreated check is calculated.
(§2) Conidia of the fungus from cryogenic storage are directly mixed into nutrient broth (Vogels broth). After placing a (DMSO) solution of test compound into a microtiter plate (96-well format), the nutrient broth containing the fungal spores is added. The test plates are incubated at 24 °C and the inhibition of growth is determined photometrically 3-4 days after application.

[2] = tested on: Alternaria solani; test: Alternaria solani (Early Blight of Tomato), tomato leaf disks, preventative; format: in vivo; details: 200 ppm; tomato leaf disks cv. Baby; inoculated 2 days after application; assessed 5-7 days after application
Description: (§3) Leaf disks or leaf segments of various plant species are cut from plants grown in a greenhouse. The cut leaf disks or segments are placed in multiwell plates (24-well format) onto water agar. The leaf disks are sprayed with a test solution before (preventative) or after (curative) inoculation. Compounds to be tested are prepared as DMSO solutions (max. 10 mg/mL) which are diluted to the appropriate concentration with 0.025% Tween20 just before spraying. The inoculated leaf disks or segments are incubated under defined conditions (temperature, relative humidity, light, etc.) according to the respective test system. A single evaluation of disease level is carried out 3 to 14 days after inoculation, depending on the pathosystem. Percent disease control relative to the untreated check leaf disks or segments is then calculated.
Tomato leaf disks cv. Baby are placed on agar in multiwell plates (24-well format) and sprayed with the formulated test compound diluted in water. […] The inoculated leaf disks are incubated at 23 °C/21 °C (day/night) and 80% rh under a light regime of 12/12 h (light/dark) in a climate cabinet and the activity of a compound is assessed as percent disease control compared to untreated when an appropriate level of disease damage appears on untreated check disk leaf disks (5-7 days after application).

[3] = tested on: Glomerella lagenarium; test: Glomerella lagenarium syn. Colletotrichum lagenarium (Anthracnose of Cucurbits), growth inhibition in nutrient broth; format: cell-based; details: Colletotrichum orbiculare, PDB potato dextrose broth, 24 °C, photometric, 3-4 days after application, read-out: control of Glomerella lagenarium (inhibition of growth)
Description: as §1
as §2, with “(PDB potato dextrose” for “(Vogels”, “measured” for “determined”

[4] = tested on: Pyrenophora teres; test: Pyrenophora teres (Net Blotch of Barley), barley leaf segments, preventative; format: in vivo; details: 200 ppm; barley leaf segments cv. Hasso; inoculated 2 days after application; assessed 5-7 days after application
Description: as §3
Barley leaf segments cv. Hasso are placed on agar in a multiwell plate (24-well format) and sprayed with the formulated test compound diluted in water. […] The inoculated leaf segments are incubated at 20 °C and 65% rh under a light regime of 12 h light/12 h darkness in a climate cabinet and the activity of a compound is assessed as disease control compared to untreated when an appropriate level of disease damage appears in untreated check leaf segments (5-7 days after application).

[5] = tested on: Sclerotinia sclerotiorum; test: Sclerotinia sclerotiorum (Cottony Rot of Oilseed Rape), growth inhibition in nutrient broth; format: cell-based; details: PDB potato dextrose broth, 24 °C, photometric, 3-4 days after application, read-out: control of Sclerotinia sclerotiorum (inhibition of growth)
Description: as §1
as §2, with “Mycelia fragments of a newly grown liquid culture” for “Conidia”, “fungus” for “fungus from cryogenic storage”, “(PDB potato dextrose” for “(Vogels”, “format)” for “format),”, “material” for “spores”

[6] = tested on: Monographella nivalis; test: Monographella nivalis syn. Microdochium nivale, Fusarium nivale (Snow Mould, Foot Rot of Cereals), growth inhibition in nutrient broth; format: cell-based; details: PDB potato dextrose broth, 24 °C, photometric, 4-5 days after application, read-out: control of Monographella nivalis (inhibition of growth)
Description: as §1
as §2, with “(PDB potato dextrose” for “(Vogels”, “4-5” for “3-4”

[7] = tested on: Mycosphaerella graminicola; test: Mycosphaerella graminicola (Septoria tritici) (Septoria Blotch), growth inhibition in nutrient broth; format: cell-based; details: Zymoseptoria tritici, read-out: control of Mycosphaerella gramminicola (inhibition of growth)
Description: as §1
as §2, with “(PDB potato dextrose” for “(Vogels”, “4-5” for “3-4”

Compound	inhibition at 20 ppm [1]	control of Alternaria solani (percent disease control compared to untreated) [2]	inhibition at 20 ppm [3]	control of Pyrenophora teres (disease control compared to untreated) [4]	inhibition at 20 ppm [5]	inhibition at 20 ppm [6]	inhibition at 20 ppm [7]
Fc1cc2ncc(Oc3cccc(C4CC4)c3)c(C3=NOCC(Cc4ccc(Cl)cc4Cl)N3)n2n1 (stereo not shown) [Compound 1.3, 3-[6-(3-cyclopropylphenoxy)-2-fluoro-pyrazolo[1,5-a]pyrimidin-7-yl]-5-[(2,4-dichlorophenyl)methyl]-5,6-dihydro-4H-1,2,4-oxadiazine]	≥ 80%	–	–	–	–	–	–
Clc1ccc(CC2CON=C(c3c(Oc4cccc(C5CC5)c4)cnc4cc(Cl)nn34)N2)c(Cl)c1 (stereo not shown) [Compound 1.4, 3-[2-chloro-6-(3-cyclopropylphenoxy)pyrazolo[1,5-a]pyrimidin-7-yl]-5-[(2,4-dichlorophenyl)methyl]-5,6-dihydro-4H-1,2,4-oxadiazine]	≥ 80%	–	–	–	–	–	–
Clc1ccc(CC2CON=C(c3c(Oc4cccc(C5CC5)c4)cnc4ccnn34)N2)c(Cl)c1 (stereo not shown) [Compound 1.1, 3-[6-(3-cyclopropylphenoxy)pyrazolo[1,5-a]pyrimidin-7-yl]-5-[(2,4-dichlorophenyl)methyl]-5,6-dihydro-4H-1,2,4-oxadiazine]	≥ 80%	at least 80%	≥ 80%	at least 80%	≥ 80%	–	–
Clc1ccc(CC2CON=C(c3c(Oc4cccc(C5CC5)c4)cnn4ccnc34)N2)c(Cl)c1 (stereo not shown) [Compound 1.5, 3-[7-(3-cyclopropylphenoxy)imidazo[1,2-b]pyridazin-8-yl]-5-[(2,4-dichlorophenyl)methyl]-5,6-dihydro-4H-1,2,4-oxadiazine]	≥ 80%	–	≥ 80%	–	≥ 80%	≥ 80%	≥ 80%
Clc1ccc(CC2CON=C(c3c(Oc4cccc(C5CC5)c4)cnc4c(Cl)cnn34)N2)c(Cl)c1 (stereo not shown) [Compound 1.2, 3-[3-chloro-6-(3-cyclopropylphenoxy)pyrazolo[1,5-a]pyrimidin-7-yl]-5-[(2,4-dichlorophenyl)methyl]-5,6-dihydro-4H-1,2,4-oxadiazine]	≥ 80%	–	–	–	–	–	–
